How the values were obtained:
[1] = tested on: Eschericia coli (E. coli) strain ATCC25922; test: Standard microdilution assay, MIC against E. coli ATCC25922; assay type: cell-based; conditions: Escherichia coli; E. coli strain ATCC25922, standard microdilution assay; cutoff 16 micrograms/mL; read-out: MIC E. Coli
Summary of the method: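 Scoring as + or − used a 16 micrograms/mL cutoff on minimum inhibitory concentrations. These came from CLSI-standard microdilution, quality-controlled with reference strains tested in the same run.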

[2] = tested on: Staphylococcus aureus (S. aureus) 11540 strain; test: Standard microdilution assay, MIC against S. aureus 11540; assay type: cell-based; conditions: S. aureus 11540 strain, standard microdilution assay, cutoff 16 micrograms/mL, read-out: MIC S. aureus
Protocol: The in vitro activity of the compounds of the present invention can be determined. Antimicrobial testing is typically performed to determine the minimum inhibitory concentration (MIC). Minimum inhibitory concentrations (MICs) are determined by the microdilution method in a final volume of 100 μl according to protocols outlined by The Clinical and Laboratory Standards Institute (CLSI). Performance standards for reference strains are assessed within the same experimental design to maintain quality control. See, for example, Clinical Laboratory Standards Institute: Methods for dilution antimicrobial susceptibility tests for bacteria that grow aerobically M7-A8. Approved Standard-Eighth Edition. Wayne, Pa.: CLSI; December 2008; and Clinical Laboratory Standards Institute: Performance Standards for Antimicrobial Susceptibility Testing M100-S20; Approved Standard-Twentieth Edition. Wayne, Pa.: CLSI; June 2010.
The compounds of the present invention were tested for antimicrobial activity. The Compounds 1-582 were run against Eschericia coli (E. coli) strain ATCC25922 and Compounds 320-582 were run against Staphylococcus aureus (S. aureus) 11540 strain using a standard microdilution assay to determine minimum inhibitory concentrations (MICs). […] It will be recognized by one skilled in the art that the compounds can be assessed against other bacterial organisms and that the presentation of data for activity against Eschericia coli and Staphylococcus aureus are illustrative and in no way is intended to limit the scope of the present invention. The compounds of the present invention can be assayed against a range of other microorganisms depending upon the performance activity desired to be gathered. Furthermore, the “+” and “−” representation and the selection of a cutoff value of 16 micrograms/mL is also illustrative and in no way is intended to limit the scope of the present invention.

| MIC [1] [µg/mL] | MIC [2] [µg/mL] | SMILES |
| --- | --- | --- |
| < 16 | < 16 | C[C@H](N)CCCc1cc(OC(F)(F)F)c(F)c(-c2cc3cn(-c4ccc([C@@H]5CCC[C@@H](CCNC(=N)N)N5)cc4)c(=O)nc3[nH]2)c1 [Compound 430] |
| < 16 | < 16 | C=C[C@@H](CCNC(=N)N)NCc1ccc(-n2cc3cc(-c4cc(CCC[C@H](C)N)cc(OC(F)(F)F)c4F)[nH]c3nc2=O)cc1 [Compound 388] |
| < 16 | < 16 | C[C@H](N)CCCc1cc(OC(F)(F)F)c(F)c(-c2cc3cn(-c4ccc([C@@H](N)CCCNC(=N)N)cc4)c(=O)nc3[nH]2)c1 [Compound 413] |
| < 16 | < 16 | C[C@H](N)CCN1CC[C@@H](c2cc3cn(-c4ccc([C@H](C)NCCCNC(=N)N)cc4)c(=O)nc3[nH]2)C1 [Compound 573] |
| < 16 | < 16 | C[C@H](N)CCCc1cc(Cl)c(F)c(-c2cc3cn(-c4ccc(C(=N)NC5CC5)cc4)c(=O)nc3[nH]2)c1 [Compound 503] |
| < 16 | < 16 | C[C@H](N)CCCc1cc(OC(F)(F)F)c(F)c(-c2cc3cn(-c4ccc(CN[C@H](C)C[C@H](CN)NC(=N)N)cc4)c(=O)nc3[nH]2)c1 [Compound 398] |
| < 16 | < 16 | N=C(N)N[C@@H](CN)CCNCc1ccc(-n2cc3cc(-c4cc(CCC[C@@H](N)CO)cc(Cl)c4F)[nH]c3nc2=O)cc1 [Compound 399] |
| < 16 | < 16 | C[C@H](N)CCCc1cc(Cl)c(F)c(-c2cc3cn(-c4ccc([C@@H]5CCC[C@@H](CCCN)N5)cc4)c(=O)nc3[nH]2)c1 [Compound 557] |
| < 16 | < 16 | COC[C@@H](CCNC(=N)N)NCc1ccc(-n2cc3cc(-c4cc(CCC[C@@H](N)CO)cc(Cl)c4F)[nH]c3nc2=O)cc1 [Compound 378] |
| < 16 | < 16 | C[C@H](N)CCCc1cc(Cl)c(F)c(-c2cc3cn(-c4ccc([C@@H]5CCC[C@@H](CNCc6ccncc6)N5)cc4)c(=O)nc3[nH]2)c1 [Compound 558] |
| < 16 | < 16 | C[C@H](N)CCCc1cc(OC(F)(F)F)c(F)c(-c2cc3cn(-c4ccc(CN[C@H](C)C[C@@H](CN)NC(=N)N)cc4)c(=O)nc3[nH]2)c1 [Compound 402] |
| < 16 | < 16 | C[C@@H](CNC(=N)N)CN1CC[C@@H](c2cc3cn(-c4ccc([C@H](C)NCCCNC(=N)N)cc4)c(=O)nc3[nH]2)C1 [Compound 576] |
| < 16 | < 16 | C[C@H](N)CCCc1cc(OC(F)(F)F)c(F)c(-c2cc3cn(-c4ccc([C@H](C)N[C@H](CO)CCNC(=N)N)cc4)c(=O)nc3[nH]2)c1 [Compound 366] |
| < 16 | < 16 | C=C[C@@H](CCNC(=N)N)NCc1ccc(-n2cc3cc(-c4cc(CCC[C@@H](N)CO)cc(Cl)c4F)[nH]c3nc2=O)cc1 [Compound 395] |
| < 16 | < 16 | C[C@H](N)CCCc1cc(Cl)c(F)c(-c2cc3cn(-c4ccc([C@@H]5CCC[C@@H](CCc6ncc[nH]6)N5)cc4)c(=O)nc3[nH]2)c1 [Compound 508] |
| < 16 | < 16 | C[C@H](N)CCCc1cc(Cl)c(F)c(-c2cc3cn(-c4ccc([C@@H]5CC(CCNC(=N)N)CN5C(=N)N)cc4)c(=O)nc3[nH]2)c1 (stereo partly drawn) [Compound 407] |
| < 16 | < 16 | C[C@H](NCCCNC(=N)N)c1ccc(-n2cc3cc(-c4cc(CCC[C@@H](N)CN=[N+]=[N-])cc(Cl)c4F)[nH]c3nc2=O)cc1 [Compound 326] |
| > 16 | > 16 | C[C@H](N)CCCc1cc(Cl)c(F)c(-c2cc3cn(-c4ccc([C@@H]5CCC[C@@H](CCNC(N)=O)N5)cc4)c(=O)nc3[nH]2)c1 [Compound 510] |

| MIC [1] [µg/mL] | MIC [2] [µg/mL] | SMILES |
| --- | --- | --- |
| < 16 | < 16 | C[C@H](N)CCCc1cc(Cl)c(F)c(-c2cc3cn(-c4ccc(CN[C@H](CCNC(=N)N)CNc5ncccn5)cc4)c(=O)nc3[nH]2)c1 [Compound 524] |
| < 16 | < 16 | C[C@H](N)CCCc1cc(Cl)c(F)c(-c2cc3cn(-c4ccc([C@H](C)NCC[C@H](N)CNC(=O)CN)cc4)c(=O)nc3[nH]2)c1 [Compound 424] |
| < 16 | < 16 | CC[C@H](N)CCCc1cc(Cl)c(F)c(-c2cc3cn(-c4ccc(CN5CC[C@H](CN)NC5=N)cc4)c(=O)nc3[nH]2)c1 [Compound 416] |
| < 16 | < 16 | C[C@H](N)CCCc1cc(Cl)c(F)c(-c2cc3cn(-c4ccc(C(N)CNC(=N)N)cc4)c(=O)nc3[nH]2)c1 (stereo partly drawn) [Compound 473] |
| < 16 | < 16 | C[C@H](N)CCCc1cc(Cl)c(F)c(-c2cc3cn(-c4ccc([C@H]5CC(CCNC(=N)N)CN5)cc4)c(=O)nc3[nH]2)c1 (stereo partly drawn) [Compound 469] |
| < 16 | < 16 | NCC[C@@H]1CCC[C@@H](c2ccc(-n3cc4cc(-c5cc(CCC[C@@H](N)CO)cc(Cl)c5F)[nH]c4nc3=O)cc2)N1 [Compound 483] |
| < 16 | < 16 | C[C@H](N)CCCc1cc(Cl)c(F)c(-c2cc3cn(-c4ccc(C(=N)NCCCNC(=N)N)cc4)c(=O)nc3[nH]2)c1 [Compound 477] |
| < 16 | < 16 | C[C@H](NCCCNC(=N)N)c1ccc(-n2cc3cc(-c4cc([C@@H]5CC[C@H](CN)O5)cc(Cl)c4F)[nH]c3nc2=O)cc1 [Compound 446] |
| < 16 | < 16 | C[C@H](N)CCCc1cc(OC(F)(F)F)c(F)c(-c2cc3cn(-c4ccc([C@@H](C)NCCCN)cc4)c(=O)nc3[nH]2)c1 [Compound 320] |
| < 16 | < 16 | C[C@@H](CN)CN1CC[C@@H](c2cc3cn(-c4ccc(CNCCCNC(=N)N)cc4)c(=O)nc3[nH]2)C1 [Compound 569] |
| < 16 | < 16 | N=C(N)NCC[C@H]1CC[C@H](c2ccc(-n3cc4cc(-c5cc(CCC[C@@H](N)CO)cc(Cl)c5F)[nH]c4nc3=O)cc2)N1 [Compound 482] |
| < 16 | < 16 | C[C@H](N)CCCc1cc(OC(F)(F)F)c(F)c(-c2cc3cn(-c4ccc([C@@H]5CC(CCN)CN5)cc4)c(=O)nc3[nH]2)c1 (stereo partly drawn) [Compound 409] |
| < 16 | < 16 | C[C@H](N)CCCc1cc(OC(F)(F)F)c(F)c(-c2cc3cn(-c4ccc(C5(CCNC(=N)N)CNC5)cc4)c(=O)nc3[nH]2)c1 [Compound 435] |
| < 16 | < 16 | C[C@H](N)CC[C@H](N)c1cc(Cl)c(F)c(-c2cc3cn(-c4ccc([C@H](C)NCCCNC(=N)N)cc4)c(=O)nc3[nH]2)c1 [Compound 342] |
| > 16 | < 16 | C[C@H](N)CCCc1cc(Cl)c(F)c(-c2cc3cn(-c4ccc([C@@H]5CCC[C@@H](CCn6cnc([N+](=O)[O-])c6)N5)cc4)c(=O)nc3[nH]2)c1 [Compound 548] |
| < 16 | < 16 | C[C@H](N)CCCc1cc(OC(F)(F)F)c(F)c(-c2cc3cn(-c4ccc([C@H](N)CCCN)cc4)c(=O)nc3[nH]2)c1 [Compound 455] |
| < 16 | < 16 | C=C[C@H](CCNC(=N)N)N[C@@H](C)c1ccc(-n2cc3cc(-c4cc(CCC[C@H](C)N)cc(OC(F)(F)F)c4F)[nH]c3nc2=O)cc1 [Compound 383] |
| < 16 | < 16 | C[C@H](N)CCCc1cc(Cl)c(F)c(-c2cc3cn(-c4ccc([C@H](C)NCC[C@@H](CSc5nccs5)NC(=N)N)cc4)c(=O)nc3[nH]2)c1 [Compound 365] |
